The results in this text go back to PubChem BioAssay AID1636 (PCMD, 2009).

pIC50: −log10 of the molar value.

The assay deals with Procathepsin L (Homo sapiens) (UniProt P07711). Kind of assay: CTSL enzyme inhibitors – biochemical, probe 2, dose response (AID 1636). Conditions: purified human cathepsin L enzyme inhibition.
Procathepsin L (Homo sapiens), sequence (P07711 114-288 limits assumed): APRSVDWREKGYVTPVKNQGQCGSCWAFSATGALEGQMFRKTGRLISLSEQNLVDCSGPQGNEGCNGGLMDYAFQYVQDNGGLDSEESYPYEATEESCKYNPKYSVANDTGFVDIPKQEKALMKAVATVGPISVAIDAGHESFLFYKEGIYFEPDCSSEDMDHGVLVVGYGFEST
Procathepsin L (Homo sapiens), sequence (P07711 292-333 limits assumed): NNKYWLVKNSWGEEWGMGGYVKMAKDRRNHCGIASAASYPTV

For `CC(C)(C)OC(=O)N[C@@H](Cc1c[nH]c2ccccc12)C(=O)NNC(=O)OCC(=O)N1CCCc2ccccc21`, the pIC50 was 8.15.
